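Results reflect a 48-hour exposure of cells in 96-well plates to compound at five concentrations. Definition used: TGI = concentration required for complete inhibition of growth.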
What was measured:
Assay in all cases: NCI tumour cell line growth inhibition, 48 h
CAKI-1 renal = system: CAKI-1 renal
DU-145 prostate = system: DU-145 prostate
MDA-MB-435 = system: MDA-MB-435
SK-MEL-28 melanoma = system: SK-MEL-28 melanoma
MOLT-4 leukemia = system: MOLT-4 leukemia
HT29 colon = system: HT29 colon
UO-31 renal = system: UO-31 renal
SK-MEL-5 melanoma = system: SK-MEL-5 melanoma
NCI/ADR-RES ovarian = system: NCI/ADR-RES ovarian
CCRF-CEM leukemia = system: CCRF-CEM leukemia
SW-620 colon = system: SW-620 colon
SNB-19 CNS = system: SNB-19 CNS
HCT-116 colon = system: HCT-116 colon
KM12 colon = system: KM12 colon
SK-MEL-2 melanoma = system: SK-MEL-2 melanoma
HOP-62 NSCLC = system: HOP-62 NSCLC
HOP-92 NSCLC = system: HOP-92 NSCLC
ACHN renal = system: ACHN renal
OVCAR-3 ovarian = system: OVCAR-3 ovarian
COLO 205 colon = system: COLO 205 colon
SNB-75 CNS = system: SNB-75 CNS
RPMI-8226 leukemia = system: RPMI-8226 leukemia
HCC-2998 colon = system: HCC-2998 colon
IGROV1 ovarian = system: IGROV1 ovarian
RXF 393 renal = system: RXF 393 renal
UACC-257 melanoma = system: UACC-257 melanoma
OVCAR-8 ovarian = system: OVCAR-8 ovarian
HL-60(TB) leukemia = system: HL-60(TB) leukemia
SF-268 CNS = system: SF-268 CNS
A549 NSCLC = system: A549 NSCLC
A498 renal = system: A498 renal
MDA-N = system: MDA-N
PC-3 prostate = system: PC-3 prostate
SF-539 CNS = system: SF-539 CNS
MALME-3M melanoma = system: MALME-3M melanoma
UACC-62 melanoma = system: UACC-62 melanoma
SK-OV-3 ovarian = system: SK-OV-3 ovarian
HCT-15 colon = system: HCT-15 colon
HS 578T breast = system: HS 578T breast
MDA-MB-231 breast = system: MDA-MB-231 breast
TK-10 renal = system: TK-10 renal
BT-549 breast = system: BT-549 breast
EKVX NSCLC = system: EKVX NSCLC
SF-295 CNS = system: SF-295 CNS
M14 melanoma = system: M14 melanoma
OVCAR-4 ovarian = system: OVCAR-4 ovarian
K-562 leukemia = system: K-562 leukemia
NCI-H23 lung = system: NCI-H23 lung
U251 CNS = system: U251 CNS
786-0 renal = system: 786-0 renal
MCF7 breast = system: MCF7 breast
NCI-H226 lung = system: NCI-H226 lung
T-47D breast = system: T-47D breast
OVCAR-5 ovarian = system: OVCAR-5 ovarian
NCI-H522 lung = system: NCI-H522 lung
LOX IMVI melanoma = system: LOX IMVI melanoma
SN12C renal = system: SN12C renal
SR leukemia = system: SR leukemia
NCI-H460 lung = system: NCI-H460 lung

Measured: TGI

O=C(Nc1sccc1S(=O)(=O)c1ccc(Cl)cc1)c1ccc(F)cc1F
96.4 µM: MALME-3M melanoma
43.5 µM: EKVX NSCLC
54 µM: MDA-MB-231 breast
86.8 µM: UACC-62 melanoma
45 µM: U251 CNS
39.5 µM: SK-MEL-2 melanoma
38.6 µM: K-562 leukemia
46.2 µM: RXF 393 renal
36.5 µM: 786-0 renal
81.3 µM: OVCAR-5 ovarian
38.8 µM: SNB-75 CNS
47.7 µM: UO-31 renal
80.1 µM: HOP-62 NSCLC
42.5 µM: HOP-92 NSCLC
56.7 µM: MOLT-4 leukemia
37.8 µM: CCRF-CEM leukemia
65.3 µM: SF-295 CNS
53.4 µM: SK-OV-3 ovarian
42.7 µM: SF-268 CNS | TK-10 renal
51.9 µM: NCI-H522 lung
53.9 µM: OVCAR-4 ovarian
48.8 µM: SNB-19 CNS
40.9 µM: SR leukemia
> 100 µM: DU-145 prostate | MDA-MB-435 | SK-MEL-28 melanoma | HT29 colon | SK-MEL-5 melanoma | NCI/ADR-RES ovarian | SW-620 colon | HCT-116 colon | KM12 colon | ACHN renal | OVCAR-3 ovarian | COLO 205 colon | RPMI-8226 leukemia | HCC-2998 colon | IGROV1 ovarian | UACC-257 melanoma | OVCAR-8 ovarian | HL-60(TB) leukemia | A549 NSCLC | MDA-N | PC-3 prostate | HCT-15 colon | M14 melanoma | MCF7 breast | NCI-H226 lung | T-47D breast | LOX IMVI melanoma | SN12C renal
54.9 µM: NCI-H23 lung
80.5 µM: HS 578T breast
65.9 µM: CAKI-1 renal
51.5 µM: A498 renal
30.5 µM: SF-539 CNS
46.8 µM: BT-549 breast

C1=C(c2ccccc2)C(N2CCOCC2)Oc2ccccc21 (stereo unspecified)
92.3 µM: A498 renal
> 100 µM: CAKI-1 renal | DU-145 prostate | MDA-MB-435 | SK-MEL-28 melanoma | MOLT-4 leukemia | HT29 colon | UO-31 renal | SK-MEL-5 melanoma | NCI-H460 lung | NCI/ADR-RES ovarian | CCRF-CEM leukemia | SW-620 colon | SNB-19 CNS | HCT-116 colon | KM12 colon | HOP-62 NSCLC | HOP-92 NSCLC | ACHN renal | OVCAR-3 ovarian | COLO 205 colon | SNB-75 CNS | RPMI-8226 leukemia | HCC-2998 colon | IGROV1 ovarian | RXF 393 renal | UACC-257 melanoma | OVCAR-8 ovarian | HL-60(TB) leukemia | SF-268 CNS | A549 NSCLC | MDA-N | PC-3 prostate | SF-539 CNS | MALME-3M melanoma | UACC-62 melanoma | SK-OV-3 ovarian | HCT-15 colon | HS 578T breast | MDA-MB-231 breast | TK-10 renal | BT-549 breast | EKVX NSCLC | SF-295 CNS | M14 melanoma | OVCAR-4 ovarian | K-562 leukemia | NCI-H23 lung | U251 CNS | 786-0 renal | MCF7 breast | NCI-H226 lung | T-47D breast | OVCAR-5 ovarian | NCI-H522 lung | LOX IMVI melanoma | SN12C renal | SR leukemia

Source: PubChem BioAssay (NCI)
